# US8466161B2, “Hydroxamate derivative, a production method for the same, and a pharmaceutical composition comprising the same” (Chong Kun Dang Pharmaceutical Corp., priority 2009, dated 2013)
# Key:
# [1] = tested on: HCT116 (human colorectal carcinoma); experiment: In vivo anticancer activity, HCT116 tumor transplantation model; design: species or system BALB/c nude mice (human tumor xenograft)
# Description: (§1) Male BALB/c nude mice (4-week old) used in human tumor transplantation studies were purchased from Central Animal Laboratory Inc. (Korea) or Orient Bio Inc. (Korea). The animals were permitted ad libitum access to sterile feed and water in a sterile breeding system at 23+0.5° C.
# (§2) For use in tumor transplantation studies, the human cancer cell lines HCT116 (human colorectal carcinoma, CCL-247), PC-3 (human prostate adenocarcinoma, CRL-1435), and A549 (human lung carcinoma, CCL-185) were purchased from ATCC (American Type Culture Collection, Rockville, Md., USA).
# (§3) HCT116 cells were cultured in an air incubator under conditions of 37° C. and 5% CO2 using McCoy'SA medium (Gibco BRL) containing 10% heat-inactivated fetal bovine serum (Gibco BRL) and 1% antibiotics-antymycotics (Gibco BRL). Cell lines other than the HCT116 cell line were cultured in an air incubator under conditions of 37° C. and 5% CO2 using RPM1640 medium (Gibco BRL) containing 10% heat-inactivated fetal bovine serum (Gibco BRL) and 1% antibiotics-antymycotics (Gibco BRL).
# (§4) Studies on the in vivo transplantation of human cancer cells were carried out in the following manner. Human cancer cells (HCT116, PC-3, and A549) that proliferated in vitro were injected subcutaneously into the abdominal region of BALB/c nude mice and allowed to proliferate in vivo. 20-25 days after the injection, the mice were sacrificed by cervical dislocation, and the solid cancer that proliferated in each of the mice was isolated aseptically, and connective or necrotic tissue and skin was removed therefrom, thus collecting a fresh cancer tissue. 50 mg of a fragment was taken aseptically from the cancer tissue and inserted into a 16-gauge trocar which was then transplanted subcutaneously into the upper abdominal region of mice.
# (§5) 15-30 days after the human cancer cell lines have been transplanted into the BALB/c nude mice, only mice in which the cancer cells have proliferated to a given size were selected and used in the experiment. When the tumor size in each of the test groups reached 100-200 mm^3 after cancer cell transplantation, the experiment was started.
# (§6) The anticancer effect of each drug was evaluated based on the inhibition rate (IR %) of tumor volume that indicates the tumor volume at reference date in comparison with control groups. […] Tumor size=(short diameter)×(long diameter)/2 I.R.(%)=[1−(mean tumor size of drug-administered group)/(mean tumor size of control group)]×100
# [2] = BALB/c nude, mouse, in vivo, ip, 2 weeks
# HL60 cell line = experiment: Inhibitory effect on growth of HL60 cell line (MTT); assay type: cell-based; settings: Homo sapiens, HL-60, 72 h, 3 days culture
# Description: In the culture of HL60 cells, 10% FBS-containing RPMI1640 medium was used Each of test substances was serially diluted in DMSO to a concentration of 10 mg/ml and serially diluted in PBS to a final concentration ranging from 100 μg/ml to 0.03 μg/ml. 20 μl (micro-liter) of each of the serially diluted test substances and 180 μl (micro-liter) of a medium containing 60×10^4 cells/ml were added to a 96-well plate and cultured under conditions of 37° C. and 5% CO2 for 3 days. After completion of the culture, 50 μl (micro-liter) of a solution of 1.25 mg/ml MTT (3-(4,5-dimethylthiazol-2-yl)-2,5-diphenyltetrazolium bromide) in PBS was added to each well of the plate and incubated at 37° C. for 3 hours. The formed formazan crystal was dissolved in 150 μl (micro-liter) of DMSO, and the absorbance at 570 nm was measured.
# HDAC enzymes = experiment: Effects against HDAC enzymes (BIOMOL kit, Hela nuclear extract); assay type: biochemical; settings: 37° C. 1 hour
# Description: To measure effects against HDAC enzymes, a kit (BIOMOL International, LP) was used Each of test substances was dissolved in DMSO to a concentration of 10 mg/ml, and an assay buffer, an enzyme solution, a substrate and a staining reagent were prepared. […] Also, the staining reagent was a mixture of assay buffer (19/20), developer (1/20) and TSA (1/100). The assay buffer, the enzyme solution, the test substance and the substrate were added sequentially to a 96-well plate, stirred on a rocker for 3 minutes, and then incubated at 37° C. for 1 hour. After completion of the incubation, the staining reagent was added, and the mixture was stirred on a rocker for 1 minute and then incubated at 37° C. for 20 minutes (the staining reagent was mixed before addition).
# [3] = Maximum tolerated dose in the HCT116 xenograft experiments; settings: BALB/c nude, mouse, in vivo, ip
# [4] = tested on: PC-3 (human prostate adenocarcinoma); experiment: In vivo anticancer activity, PC-3 tumor transplantation model; design: species or system BALB/c nude mice (human tumor xenograft); settings: for IR (%): Table 21, b.i.wk(Mon, Thu), 3 wks, ip
# Description: as §1, §2, §3, §4, §5, §6
# P450 (CYP3A4) = P450 (CYP3A4) (Homo sapiens, UniProt P08684); experiment: P450 (CYP3A4) inhibitory activity (BFC fluorescent substrate); assay type: in vitro ADME; settings: FIG. 6; in words
# Sequence of P450 (CYP3A4) (P08684 whole entry, species assumed): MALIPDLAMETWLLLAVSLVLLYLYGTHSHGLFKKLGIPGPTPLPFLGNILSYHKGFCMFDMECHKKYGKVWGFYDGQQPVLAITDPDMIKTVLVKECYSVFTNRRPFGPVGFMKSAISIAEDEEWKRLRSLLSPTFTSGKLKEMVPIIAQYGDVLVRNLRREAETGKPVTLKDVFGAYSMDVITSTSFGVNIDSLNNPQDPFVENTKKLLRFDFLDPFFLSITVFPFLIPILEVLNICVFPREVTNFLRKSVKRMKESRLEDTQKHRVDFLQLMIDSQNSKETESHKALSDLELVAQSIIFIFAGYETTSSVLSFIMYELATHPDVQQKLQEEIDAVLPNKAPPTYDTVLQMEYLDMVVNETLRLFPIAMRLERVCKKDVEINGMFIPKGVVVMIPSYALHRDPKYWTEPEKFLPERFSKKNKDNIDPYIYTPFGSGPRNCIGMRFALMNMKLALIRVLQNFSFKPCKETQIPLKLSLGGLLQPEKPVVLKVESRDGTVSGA
# Description: P450 (CYP3A4) is a metabolic enzyme, and non-inhibition of the enzyme by a test compound means that the test substance has a low possibility of causing side effects by interaction with other drugs. Each of compounds used in the test was dissolved in DMSO (10 mg/ml), and the dilution of each test substance to 2×10^−2 mg/ml was additionally performed in 200 μl (micro-liter) of a test system containing an assay buffer. The final solvent concentration was not higher than 2%. The CYP3A4 protein inhibitory test system included a total assay volume (100 μl (micro-liter)) of a NADPH production system (3.3 mM glucose-6-phosphate, 0.4 units/ml glucose-6-phosphate dehydrogenase, 1.3 mM NADP+ and 3.3 mM MgCl2.6H2O in assay buffer) and a test compound in each well of a 96-well plate. After pre-incubation at 37° C. for 10 minutes, 100 μl (micro-liter) of a KPO4 assay buffer containing […] P450 protein and 50 uM BFC (7-benzyloxy-trifluoromethylcoumarin) fluorescent probe substrate was added to the test system, and an enzyme reaction in the test system having a total assay volume of 200 μl (micro-liter) was initiated. […] Irradiation with fluorescence was carried out at an excitation wavelength of 409 nm and an emission wavelength of 530 nm.
# [5] = tested on: A549 (human lung carcinoma); experiment: In vivo anticancer activity, A549 tumor transplantation model; design: species or system BALB/c nude mice (human tumor xenograft); settings: for IR (%): Table 20, b.i.wk(Mon, Thu), 3 wks, ip
# Description: as §1, §2, §3, §4, §5, §6
# [6] = Table 18, 80 mg/kg/day, qd x 5, 2 wks, ip
smiles,measurement,setting,value
"O=C(CCCCCCC(=O)Nc1ccccc1)NO [SAHA, vorinostat, reference compound]",IR (%),"[1]; Table 18, 100 mg/kg/day, qd x 5, 2 wks, ip",46%
same,IR (%),"[1]; Table 22, 200 mg/kg/day, qd x 5, 3 wks, p.o",26%
same,maximum tolerated doses (MTDs),[2],100 mg/kg
"O=C(/C=C/c1cccc(S(=O)(=O)Nc2ccccc2)c1)NO [PXD 101, Belinostat, reference compound]",IR (%),[1]; [6],38%
same,IC50,HL60 cell line,100 to 200 nM
same,IC50,HDAC enzymes,100 to 200 nM
same,MTD at 2 weeks,[3],80 mg/kg
"CN1CCN(C(=O)N(CCCCCCC(=O)NO)c2ccc(-c3ccc4cnn(C)c4c3)cc2)CC1 [Compound 312, N-(7-(hydroxyamino)-7-oxoheptyl)-4-methyl-N-(4-(1-methyl-1H-indazol-6-yl)phenyl)piperazine-1-carboxamide]",IR (%),"[1]; Table 18, 20 mg/kg/day, qd x 5, 2 wks, ip",51%
same,IR (%),"[1]; Table 18, 40 mg/kg/day, qd x 5, 2 wks, ip",58%
same,IR (%),"[1]; Table 18, 60 mg/kg/day, qd x 5, 2 wks, ip",70%
same,IR (%),[1]; [6],81%
same,IR (%),"[1]; Table 22, 150 mg/kg, b.i.wk(Mon, Thu), 3 wks, p.o",52%
same,IR (%),"[1]; Table 22, 180 mg/kg, b.i.wk(Mon, Thu), 3 wks, p.o",55%
same,IR (%),"[1]; Table 22, 210 mg/kg, b.i.wk(Mon, Thu), 3 wks, p.o",69%
same,colon cancer (HCT 116) inhibitory effect compared to control drugs,"[1]; ip, qd x 5, 2 wks, in words",excellent colon cancer inhibitory effects
same,"inhibitory effect against colon cancer (HCT116) upon oral administration compared to LBH 589, SAHA and MGCD0103","[1]; oral, twice a week for 3 weeks, in words",excellent inhibitory effect
same,IC50,HL60 cell line,50 to 100 nM
same,IR (%),[4]; 60 mg/kg,39%
same,IR (%),[4]; 80 mg/kg,39%
same,IR (%),[4]; 100 mg/kg,59%
same,inhibitory effects against prostate cancer (PC-3) compared to LBH 589,"[4]; twice a week for 3 weeks, in words",excellent inhibitory effects
same,P450 3A4 inhibition,P450 (CYP3A4),did not inhibit
same,P450 3A4 inhibitory activity relative to LBH 589,P450 (CYP3A4),lower than that of LBH 589
same,IR (%),[5]; 60 mg/kg,50%
same,IR (%),[5]; 80 mg/kg,56%
same,IR (%),[5]; 100 mg/kg,71%
same,inhibitory effect against non-small cell lung cancer (A549),"[5]; administered twice a week, in words",excellent inhibitory effect
